The values that follow come from publication PMC6219798, “A novel decarboxylating amidohydrolase involved in avoiding metabolic dead ends during cyanuric acid catabolism in Pseudomonas sp. strain ADP” (PLoS ONE, 2018).

For orientation: stoichiometry N means the number of molecules, sites or subunits per partner or assembly.

The target of one test is T1, AtzD (Pseudomonas sp. ADP, UniProt P58329).
T1 construct: His6-tagged, E. coli BL21(DE3), Ni-NTA purified; cloning described elsewhere
T1 sequence (P58329 1-363): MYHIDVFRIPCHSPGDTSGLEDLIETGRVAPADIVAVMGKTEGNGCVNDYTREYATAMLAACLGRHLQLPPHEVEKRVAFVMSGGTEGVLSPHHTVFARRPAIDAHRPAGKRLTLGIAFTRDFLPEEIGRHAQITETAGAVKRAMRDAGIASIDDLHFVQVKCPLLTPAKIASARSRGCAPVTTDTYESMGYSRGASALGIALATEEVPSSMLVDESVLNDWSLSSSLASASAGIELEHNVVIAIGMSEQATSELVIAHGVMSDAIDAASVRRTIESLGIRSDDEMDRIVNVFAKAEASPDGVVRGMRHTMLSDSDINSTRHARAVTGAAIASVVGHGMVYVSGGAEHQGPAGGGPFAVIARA
The test can be described thus: UV absorbance at […] nm, ring opening. The format is biochemical. The settings on record: 12 uM AtzD, 1 mM cyanuric acid.

Test [1] concerns the target AtzH from Pseudomonas sp. strain ADP, his-tag removed (Pseudomonas sp. strain ADP). The test can be described thus: SEC; size exclusion chromatography of AtzH after removal of the his-tag; Superdex preparation grade resin, 130 mL column, 25 mM HEPES, 200 mM NaCl, pH 7.5. (Size exclusion chromatography separates by hydrodynamic size, large species first.)
Another test concerns the target T2, AtzEG (Pseudomonas sp. ADP, UniProt Q936X3).
T2 construct: gene atzE; AtzE and AtzG co-expressed from pACYCDuet-1 in E. coli BL21(DE3); heterotetramer; with 1-carboxybiuret hydrolase subunit AtzG
T2 sequence (Q936X3 1-457): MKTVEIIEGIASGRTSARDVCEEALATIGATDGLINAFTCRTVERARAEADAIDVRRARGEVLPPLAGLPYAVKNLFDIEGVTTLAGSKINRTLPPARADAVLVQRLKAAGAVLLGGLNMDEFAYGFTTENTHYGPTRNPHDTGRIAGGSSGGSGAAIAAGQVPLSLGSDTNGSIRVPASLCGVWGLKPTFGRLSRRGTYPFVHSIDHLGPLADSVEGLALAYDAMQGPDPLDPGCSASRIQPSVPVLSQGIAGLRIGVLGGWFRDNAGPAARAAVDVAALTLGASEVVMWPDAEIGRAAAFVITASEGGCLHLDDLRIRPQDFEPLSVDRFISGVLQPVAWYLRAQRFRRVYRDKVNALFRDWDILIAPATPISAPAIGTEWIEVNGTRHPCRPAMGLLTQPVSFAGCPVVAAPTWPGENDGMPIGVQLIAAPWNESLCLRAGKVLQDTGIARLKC
T2 sequence (A0A384E126 1-68 partner): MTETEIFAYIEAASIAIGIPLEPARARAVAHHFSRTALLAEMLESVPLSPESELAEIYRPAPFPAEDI
The test can be described thus: GDH-coupled ammonia release at […] nm. The class given is biochemical. The settings on record: substrate made in situ by AtzD from 1 mM cyanuric acid; 0.17 uM enzyme, 25 mM potassium phosphate pH 8.5.

`O=c1[nH]c(=O)[nH]c(=O)[nH]1` [cyanuric acid, 1,3,5-triazine-2,4,6-triol]: at AtzD, the “UV absorbance at 214 nm, ring opening” value is “incubating AtzD and its substrate in the presence or absence of AtzH”.
In the case of “AtzH from Pseudomonas sp. strain ADP, his-tag removed (enzyme)”, in test [1], the stoichiometry N was 2.
For the compound `NC(=O)NC(=O)NC(=O)O` [1-carboxybiuret], the “GDH-coupled ammonia release at 340 nm” value at AtzEG is “The substrate for AtzEG (1-carboxybiuret) is unstable and was therefore produced in situ”.
